# Source: patent publication US9364523B2 (priority 2014, dated 2016)
# Residues, ends and D or L forms follow the SMILES beside them. *: point of attachment. Cbz = O=C(OCc1ccccc1)*
# What was measured:
# transfected COS cells = assay type: cell-based
# transfected HEK cells = assay type: cell-based
smiles,measurement,setting,value
CC(C)C[C@@H](C=O)NC(=O)[C@H](CC(C)C)NC(=O)[C@H](CC(C)C)NC(=O)OCc1ccccc1 [MG132] (Cbz-Leu-Leu-Leu-aldehyde),MTI-PAA expression in the presence of proteasome inhibitor,transfected COS cells,enhanced
same,MTI-PAA levels in the presence of proteasome inhibitor,transfected HEK cells,increased levels of MTI-PAA
